# From the supplement of paper PMC10307832
# Assays:
# Test in all cases: relative viability (nuclei count vs DMSO), 5 days (fraction); higher = more cells survive
# Ruxolitinib + Phenformin = compound: N#CC[C@H](C1CCCC1)n1cc(-c2ncnc3[nH]ccc23)cn1 [Ruxolitinib] + N=C(N)NC(=N)NCCc1ccccc1 [Phenformin] (partner 250 µM)
# Procedure, shortened: (§1)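 Lung cancer cell lines were pin-tool dosed in 1536-well plates on the day after seeding, with either a lone drug or a fixed anchor-drug dose plus five library-drug doses (not always all listed) in √10 steps. Nuclei were counted on 4× images after 5 days. Relative viability is the ratio of treated-well to vehicle-well nuclei counts, with each value a median of duplicate plates.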
# Vismodegib + OSI-027 = compound: CS(=O)(=O)c1ccc(C(=O)Nc2ccc(Cl)c(-c3ccccn3)c2)c(Cl)c1 [Vismodegib] + COc1cccc2cc(-c3nc([C@H]4CC[C@H](C(=O)O)CC4)n4ncnc(N)c34)[nH]c12 [OSI-027] (partner 0.5 µM)
# Procedure, shortened: as §1
# Vismodegib + Pemetrexed = compound: CS(=O)(=O)c1ccc(C(=O)Nc2ccc(Cl)c(-c3ccccn3)c2)c(Cl)c1 [Vismodegib] + Nc1nc2[nH]cc(CCc3ccc(C(=O)N[C@@H](CCC(=O)O)C(=O)O)cc3)c2c(=O)[nH]1 [Pemetrexed] (partner 0.2 µM)
# Procedure, shortened: as §1
# Ruxolitinib + Foretinib = compound: N#CC[C@H](C1CCCC1)n1cc(-c2ncnc3[nH]ccc23)cn1 [Ruxolitinib] + COc1cc2c(Oc3ccc(NC(=O)C4(C(=O)Nc5ccc(F)cc5)CC4)cc3F)ccnc2cc1OCCCN1CCOCC1 [Foretinib] (partner 0.25 µM)
# Procedure, shortened: as §1
cell line,measurement,setting,value
UMC-11,relative viability,Ruxolitinib + Phenformin; first compound 0.08 µM,0.344
same,relative viability,Ruxolitinib + Phenformin; first compound 0.253 µM,0.326
same,relative viability,Ruxolitinib + Phenformin; first compound 0.8 µM,0.356
same,relative viability,Ruxolitinib + Phenformin; first compound 2.53 µM,0.279
same,relative viability,Ruxolitinib + Phenformin; first compound 8 µM,0.257
same,relative viability,Vismodegib + OSI-027; first compound 0.08 µM,0.499
same,relative viability,Vismodegib + OSI-027; first compound 0.253 µM,0.468
same,relative viability,Vismodegib + OSI-027; first compound 0.8 µM,0.408
same,relative viability,Vismodegib + OSI-027; first compound 2.53 µM,0.43
same,relative viability,Vismodegib + OSI-027; first compound 8 µM,0.46
same,relative viability,Vismodegib + Pemetrexed; first compound 0.08 µM,0.61
same,relative viability,Vismodegib + Pemetrexed; first compound 0.253 µM,0.807
same,relative viability,Vismodegib + Pemetrexed; first compound 0.8 µM,0.768
same,relative viability,Vismodegib + Pemetrexed; first compound 2.53 µM,0.739
same,relative viability,Vismodegib + Pemetrexed; first compound 8 µM,0.868
same,relative viability,Ruxolitinib + Foretinib; first compound 0.08 µM,1.05
same,relative viability,Ruxolitinib + Foretinib; first compound 0.253 µM,1.07
same,relative viability,Ruxolitinib + Foretinib; first compound 0.8 µM,1.28
same,relative viability,Ruxolitinib + Foretinib; first compound 2.53 µM,1.07
same,relative viability,Ruxolitinib + Foretinib; first compound 8 µM,1.02
